Assay results taken from US11111245B2, “Derivatives of N-cycloalkyl/heterocycloalkyl-4-(imidazo[1,2-a]pyridine)pyrimidin-2-amine as therapeutic agents” (Aucentra Therapeutics Pty Ltd, priority 2017, dated 2021).

Tests used:
leukemia cell lines = assay: Resazurin cell viability assay on leukemia cell lines (72 h growth inhibition, GI50); type: cell-based; settings: Homo sapiens, MV4-11 cells
Description: Compounds from Example 1 were subjected to a standard MTT (3-(4,5-dimethylthiazol-2-yl)-2,5-diphenyltetrazolium bromide) and resazurin assays on solid tumour cell lines and leukemia cell lines, respectively, as previously reported (Wang S et al., J Med Chem 47:1662-1675, 2004 and Diab S. et al. CheMedChem 9:962-972, 2014). Compound concentrations required to inhibit 50% of cell growth (GI50) were calculated using non-linear regression analysis.

CDK9/T1 = CDK9/T1 (Homo sapiens, UniProt P50750); assay: ADP Glo Kinase assay CDK9/T1; type: biochemical; settings: CDK9T1; read-out: CDK inhibition, Ki (μM) CDK9T1
Sequence of CDK9/T1 (P50750 whole entry): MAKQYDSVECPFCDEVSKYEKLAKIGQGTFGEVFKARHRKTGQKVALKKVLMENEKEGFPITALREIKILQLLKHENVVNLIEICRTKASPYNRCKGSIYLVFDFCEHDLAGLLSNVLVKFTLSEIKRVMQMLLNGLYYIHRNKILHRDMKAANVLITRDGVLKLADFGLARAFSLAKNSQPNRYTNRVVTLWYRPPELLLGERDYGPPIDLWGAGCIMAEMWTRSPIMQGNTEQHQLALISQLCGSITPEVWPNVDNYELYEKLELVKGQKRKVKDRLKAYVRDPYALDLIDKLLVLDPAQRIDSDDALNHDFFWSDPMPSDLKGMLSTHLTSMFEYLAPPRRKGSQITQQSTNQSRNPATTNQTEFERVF
Sequence of CDK9/T1 (O60563 whole entry partner): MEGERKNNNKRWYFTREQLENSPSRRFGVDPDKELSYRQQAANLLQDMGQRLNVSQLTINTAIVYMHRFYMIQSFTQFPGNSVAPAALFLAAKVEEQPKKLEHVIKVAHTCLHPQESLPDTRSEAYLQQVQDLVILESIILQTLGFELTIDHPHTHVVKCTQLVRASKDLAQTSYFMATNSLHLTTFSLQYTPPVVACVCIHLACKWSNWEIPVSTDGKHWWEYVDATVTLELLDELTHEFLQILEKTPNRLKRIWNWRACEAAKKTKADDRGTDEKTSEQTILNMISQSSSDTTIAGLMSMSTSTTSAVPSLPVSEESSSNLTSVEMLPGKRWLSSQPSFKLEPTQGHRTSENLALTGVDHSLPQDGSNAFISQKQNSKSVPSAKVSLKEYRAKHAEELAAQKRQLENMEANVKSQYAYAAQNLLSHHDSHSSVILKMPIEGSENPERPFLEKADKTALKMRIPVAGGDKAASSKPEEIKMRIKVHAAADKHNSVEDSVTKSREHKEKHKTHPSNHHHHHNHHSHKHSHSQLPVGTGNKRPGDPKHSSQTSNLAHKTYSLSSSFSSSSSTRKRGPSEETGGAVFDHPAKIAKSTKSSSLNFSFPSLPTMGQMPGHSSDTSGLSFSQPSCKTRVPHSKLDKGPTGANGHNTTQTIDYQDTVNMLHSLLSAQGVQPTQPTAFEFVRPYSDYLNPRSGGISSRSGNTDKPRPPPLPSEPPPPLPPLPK
Description: (§1) Eurofins Pharma Discovery or Reaction Biology Corporation Kinase Profiler services were used to measure inhibition of CDKs and other kinases by radiometric assay. Inhibition of CDK4/D1, CDK6/D3 and CDK9/T1 were also determined in-house using ADP Glo Kinase assays (Promega Corporation, Madison, USA). Briefly, the kinase reaction for CDK4/D1 and CDK6/D3 was performed with kinase reaction buffer ([…] Tris base pH 7.5, 20 mM MgCl2, 0.4 mM DTT), 0.1 mg/ml BSA and RB-CTF substrate (retinoblastoma protein 1 C-terminal fraction). For CDK9/CyclinT1, the kinase reaction was performed with standard assay buffer and Kinase Dilution Buffer and RBER-IRStide substrate. Serial dilutions of 1:3 were prepared for test compounds for 10 concentrations (from 10 μM to 0.5 nM). The kinase reactions were started by addition of ATP, incubated for 40 min at 37° C. and then stopped by adding 10 μL of ADP Glo reagent. After incubation at room temperature in the dark for 40 min, 20 μL of kinase detection reagent was added per well and incubated for 40 min. Luminescence was measured using an EnVision Multilabel plate reader (PerkinElmer, Buckinghamshire, UK). Positive and negative controls were performed in the presence and absence of CDK kinases, respectively. Half-maximal inhibition (IC50) values were calculated using a 4-parameter logistic non-linear regression model with Graphpad prism (Version 6.0). Apparent inhibition constants (Ki) values were calculated from Km (ATP) and IC50 values for the respective kinases.

CDK4/D1 = CDK4/D1 (Homo sapiens, UniProt P11802); assay: ADP Glo Kinase assay CDK4/D1; type: biochemical; settings: CDK4D1; for Ki: read-out: CDK inhibition, Ki (μM) CDK4D1; for remaining activity at 10 µM: compound at 10 μM, read-out: residual activity (%) at 10 μM CDK4D1
Sequence of CDK4/D1 (P11802 whole entry): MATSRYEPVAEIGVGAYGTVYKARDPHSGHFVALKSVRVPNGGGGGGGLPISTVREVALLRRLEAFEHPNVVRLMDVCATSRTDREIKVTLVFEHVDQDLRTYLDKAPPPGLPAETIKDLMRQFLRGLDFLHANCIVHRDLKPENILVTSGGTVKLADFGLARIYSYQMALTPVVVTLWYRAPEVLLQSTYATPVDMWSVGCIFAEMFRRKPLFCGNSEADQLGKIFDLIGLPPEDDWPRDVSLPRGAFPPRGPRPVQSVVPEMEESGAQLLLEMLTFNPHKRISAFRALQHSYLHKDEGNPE
Sequence of CDK4/D1 (P24385 whole entry partner): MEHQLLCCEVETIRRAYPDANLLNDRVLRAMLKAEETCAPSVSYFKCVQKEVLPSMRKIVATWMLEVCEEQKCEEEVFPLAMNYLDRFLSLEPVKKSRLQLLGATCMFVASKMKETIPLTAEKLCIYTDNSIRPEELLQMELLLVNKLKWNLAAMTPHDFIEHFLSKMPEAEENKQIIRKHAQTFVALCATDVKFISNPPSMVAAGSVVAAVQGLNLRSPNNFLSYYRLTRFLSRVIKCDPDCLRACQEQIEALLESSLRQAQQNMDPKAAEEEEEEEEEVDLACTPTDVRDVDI
Description: as §1

CDKs and other kinases [1] = target: T1, CDKs and other kinases (Homo sapiens, UniProt P24941); assay: Radiometric kinase assay (Eurofins Pharma Discovery or Reaction Biology Corporation Kinase Profiler); type: biochemical; settings: CDK2A; for Ki: read-out: CDK inhibition, Ki (μM) CDK2A; for remaining activity at 10 µM: compound at 10 μM, read-out: residual activity (%) at 10 μM CDK2A
T1 construct: other: CDK2A; residual activity (%) at 10 μM CDK2A; compound at 10 μM
Description: as §1

CDKs and other kinases [2] = target: T2, CDKs and other kinases (Homo sapiens, UniProt P50613); assay: as above; type: biochemical; settings: CDK7H; for Ki: read-out: CDK inhibition, Ki (μM) CDK7H; for remaining activity at 10 µM: compound at 10 μM, read-out: residual activity (%) at 10 μM CDK7H
T2 construct: other: CDK7H; residual activity (%) at 10 μM CDK7H; compound at 10 μM
T2 sequence (P50613 whole entry): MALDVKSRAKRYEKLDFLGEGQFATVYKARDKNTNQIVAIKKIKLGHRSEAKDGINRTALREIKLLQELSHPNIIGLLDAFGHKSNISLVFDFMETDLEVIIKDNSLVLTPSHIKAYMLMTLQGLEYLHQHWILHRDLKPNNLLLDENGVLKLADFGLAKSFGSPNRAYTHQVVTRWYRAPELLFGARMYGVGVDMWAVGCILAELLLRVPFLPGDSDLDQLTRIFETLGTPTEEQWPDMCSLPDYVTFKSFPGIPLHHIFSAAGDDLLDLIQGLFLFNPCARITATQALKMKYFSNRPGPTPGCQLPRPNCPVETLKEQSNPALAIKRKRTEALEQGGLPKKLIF
Description: as §1

CDKs and other kinases [3] = target: T3, CDKs and other kinases (Homo sapiens, UniProt P06493); assay: as above; type: biochemical; settings: CDK1B; for Ki: read-out: CDK inhibition, Ki (μM) CDK1B; for remaining activity at 10 µM: compound at 10 μM, read-out: residual activity (%) at 10 μM CDK1B
T3 construct: other: CDK1B; residual activity (%) at 10 μM CDK1B; compound at 10 μM
T3 sequence (P06493 whole entry): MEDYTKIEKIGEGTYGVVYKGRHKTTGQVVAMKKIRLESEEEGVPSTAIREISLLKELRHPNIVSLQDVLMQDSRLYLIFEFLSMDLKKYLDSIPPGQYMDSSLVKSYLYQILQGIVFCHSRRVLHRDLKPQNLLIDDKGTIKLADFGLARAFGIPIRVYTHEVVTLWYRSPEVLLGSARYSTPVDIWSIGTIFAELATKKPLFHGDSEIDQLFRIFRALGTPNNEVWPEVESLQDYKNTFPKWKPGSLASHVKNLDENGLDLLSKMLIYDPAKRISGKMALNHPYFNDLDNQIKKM
Description: as §1

| SMILES | GI50 (leukemia cell lines) [µM] | Ki (CDK9/T1) [µM] | Ki (CDK4/D1) [µM] | Ki (CDKs and other kinases [1]) [µM] | Ki (CDKs and other kinases [2]) [µM] | Ki (CDKs and other kinases [3]) [µM] | remaining activity at 10 µM (CDK4/D1) [%] | remaining activity at 10 µM (CDKs and other kinases [1]) [%] | remaining activity at 10 µM (CDKs and other kinases [2]) [%] | remaining activity at 10 µM (CDKs and other kinases [3]) [%] |
| --- | --- | --- | --- | --- | --- | --- | --- | --- | --- | --- |
| CN1CCC(Nc2ncc(F)c(-c3cnc4ccccn34)n2)CC1 [Compound 19, 5-Fluoro-4-(imidazo[1,2-a]pyridin-3-yl)-N-(1-methylpiperidin-4-yl)pyrimidin-2-amine] | 0.084 ± 0.008 | 0.078 | 0.004 | 0.527 | 0.27 | 0.795 | – | – | – | – |
| Cc1cnc(NC2CCC(F)(F)CC2)nc1-c1cnc2ccccn12 [Compound 156, N-(4,4-Difluorocyclohexyl)-4-(imidazo[1,2-a]pyridin-3-yl)-5-methylpyrimidin-2-amine] | 3.3 ± 0.31 | > 5 | – | – | – | – | 51 | 34 | 80 | 77 |
| Cc1cnc(N2CCC3(CCNC3=O)CC2)nc1-c1cnc2ccccn12 [Compound 124, 8-(4-(Imidazo[1,2-a]pyridin-3-yl)-5-methylpyrimidin-2-yl)-2,8-diazaspiro[4.5]decan-1-one] | > 5 | > 5 | – | – | – | – | – | 34 | 91 | 87 |
| Cc1cnc(N[C@H]2CC[C@H](C)CC2)nc1-c1cnc2ccc(-c3ccccc3)cn12 [Compound 151, 5-Methyl-N-((1r,4r)-4-methylcyclohexyl)-4-(6-phenylimidazo[1,2-a]pyridin-3-yl)pyrimidin-2-amine] | 8.643 ± 0.01 | > 5 | – | – | – | – | 93 | 87 | 94 | 96 |
| Fc1cnc(NC2CCN(CC3CCCC3)CC2)nc1-c1cnc2ccc(-c3ccccc3)cn12 [Compound 146, N-(1-(Cyclopentylmethyl)piperidin-4-yl)-5-fluoro-4-(6-phenylimidazo[1,2-a]pyridin-3-yl)pyrimidin-2-amine] | 0.026 ± 0.003 | 1.82 | – | – | 0.37 | – | 34 | 34 | – | 16 |
| COCCN[C@H]1CC[C@@H](Nc2ncc(C)c(-c3cnc4ccc(-c5ccccc5)cn34)n2)CC1 [Compound 130, (1s,4s)-N^1-(2-Methoxyethyl)-N^4-(5-methyl-4-(6-phenylimidazo[1,2-a]pyridin-3-yl)pyrimidin-2-yl) cyclohexane-1,4-diamine] | 0.172 ± 0.001 | 1.12 | – | – | – | – | 23 | 23 | 40 | 25 |
| Cc1cnc(NC2CCC(N(C)C)CC2)nc1-c1cnc2ccc(Nc3cncc(F)c3)cn12 (centres unmarked) [Compound 120, N^1-(4-(6-((5-Fluoropyridin-3-yl)amino)imidazo[1,2-a]pyridin-3-yl)-5-methylpyrimidin-2-yl)-N^4,N^4-dimethylcyclohexane-1,4-diamine] | 0.023 ± 0.01 | 0.015 | 0.87 | – | – | – | – | 4 | 29 | 31 |
| Fc1cnc(N[C@H]2CC[C@H](N3CCCC3)CC2)nc1-c1cnc2ccc(-c3ccccc3)cn12 [Compound 137, 5-Fluoro-4-(6-phenylimidazo[1,2-a]pyridin-3-yl)-N-((1r,4r)-4-(pyrrolidin-1-yl)cyclohexyl)pyrimidin-2-amine] | < 0.01 | 0.003 | – | – | 0.04 | – | 7 | 0 | – | 3 |
| Cc1cnc(N[C@H]2CC[C@H](N3CCC3)CC2)nc1-c1cnc2ccc(-c3ccccc3)cn12 [Compound 135, N-((1r,4r)-4-(Azetidin-1-yl)cyclohexyl)-5-methyl-4-(6-phenylimidazo[1,2-a]pyridin-3-yl)pyrimidin-2-amine] | 0.564 ± 0.047 | 1.14 | – | – | – | – | 28 | 57 | 13 | 61 |
| Cc1cnc(N[C@H]2CC[C@H](C(=O)O)CC2)nc1-c1cnc2ccc(Nc3cncnc3)cn12 [Compound 158, (1r,4r)-4-((5-Methyl-4-(6-(pyrimidin-5-ylamino)imidazo [1,2-a]pyridin-3-yl)pyrimidin-2-yl)amino)cyclohexane-1-carboxylic acid] | > 10 | 0.185 | – | – | – | – | 92 | 85 | 98 | 94 |
| CN1CCC(Nc2ncc(F)c(-c3cnc4ccc(Nc5cncnc5)cn34)n2)CC1 [Compound 149, 3-(5-Fluoro-2-((1-methylpiperidin-4-yl)amino)pyrimidin-4-yl)-N-(pyrimidin-5-yl)imidazo[1,2-a]pyridin-6-amine] | 0.145 ± 0.001 | 0.178 | – | – | 0.313 | – | 3 | 20 | – | 9 |
| Cc1cnc(N[C@H]2CC[C@H](N3CCCC3)CC2)nc1-c1cnc2ccc(Nc3cncnc3)cn12 [Compound 142, 3-(5-Methyl-2-(((1r,4r)-4-(pyrrolidin-1-yl)cyclohexyl)amino)pyrimidin-4-yl)-N-(pyrimidin-5-yl)imidazo [1,2-a]pyridin-6-amine] | 0.064 ± 0.017 | 0.025 | – | – | – | – | 8 | 15 | 39 | 23 |
| Cc1cnc(N[C@H]2CC[C@H](N3CCCC3)CC2)nc1-c1cnc2ccc(-c3ccccc3)cn12 [Compound 140, 5-Methyl-4-(6-phenylimidazo[1,2-a]pyridin-3-yl)-N-((1r,4r)-4-(pyrrolidin-1-yl)cyclohexyl)pyrimidin-2-amine] | 0.242 ± 0.132 | 0.53 | – | – | 0.597 | – | 65 | 61 | – | 39 |
| Fc1cnc(NC2CCNCC2)nc1-c1cnc2ccccn12 [Compound 21, 5-Fluoro-4-(imidazo[1,2-a]pyridin-3-yl)-N-(piperidin-4-yl)pyrimidin-2-amine] | 0.003 ± 0.001 | 0.069 | – | 0.321 | 0.6 | 0.479 | -11 | – | – | – |
| Cc1cnc(N[C@H]2CC[C@H](N3CCC3)CC2)nc1-c1cnc2ccc(Nc3cncc(F)c3)cn12 [Compound 139, 3-(2-(((1r,4r)-4-(Azetidin-1-yl)cyclohexyl)amino)-5-methylpyrimidin-4-yl)-N-(5-fluoropyridin-3-yl)imidazo [1,2-a]pyridin-6-amine] | – | 0.044 | – | – | – | – | 14 | 4 | 15 | 31 |
| Cc1cnc(N[C@H]2CC[C@H](N)CC2)nc1-c1cnc2ccc(Nc3ccc(F)nc3)cn12 [Compound 123, (1r,4r)-N^1-(4-(6-((6-Fluoropyridin-3-yl)amino)imidazo [1,2-a]pyridin-3-yl)-5-methylpyrimidin-2-yl)cyclohexane-1,4-diamine] | – | 0.011 | – | 0.3 | 0.89 | 1.53 | 31 | – | – | – |
| Fc1cnc(NC2CCN(CC3CC3)CC2)nc1-c1cnc2ccc(-c3ccccc3)cn12 [Compound 145, N-(1-(Cyclopropylmethyl)piperidin-4-yl)-5-fluoro-4-(6-phenylimidazo[1,2-a]pyridin-3-yl)pyrimidin-2-amine] | – | 0.402 | – | – | 0.199 | 0.222 | 41 | 22 | – | – |
